Activity calls are given as the source filed them. The rule behind the calls is not given here. Some results are limits rather than exact numbers.

We go through one compound from ChEMBL document CHEMBL5104103 (J Med Chem, 2022).

For data set [1], the target named is T1, Tyrosine-protein kinase Blk (Homo sapiens, UniProt P51451). Put plainly: Displacement of competitive tracer from BLK (unknown origin) assessed as target occupancy at […] preincubated for 15 mins measured for 6 hrs relative to control. Particulars: dose 1.5 µM.
Data set [2] concerns the target T1, Tyrosine-protein kinase Blk. Kind of data set: Displacement of competitive tracer from BLK (unknown origin) assessed as target occupancy at […] preincubated for 15 mins measured for 24 hrs relative to control. To be noted: dose 1.5 µM.
The target in data set [3] is T2, Cytoplasmic tyrosine-protein kinase BMX (Homo sapiens) (UniProt P51813).
T2 sequence (whole entry): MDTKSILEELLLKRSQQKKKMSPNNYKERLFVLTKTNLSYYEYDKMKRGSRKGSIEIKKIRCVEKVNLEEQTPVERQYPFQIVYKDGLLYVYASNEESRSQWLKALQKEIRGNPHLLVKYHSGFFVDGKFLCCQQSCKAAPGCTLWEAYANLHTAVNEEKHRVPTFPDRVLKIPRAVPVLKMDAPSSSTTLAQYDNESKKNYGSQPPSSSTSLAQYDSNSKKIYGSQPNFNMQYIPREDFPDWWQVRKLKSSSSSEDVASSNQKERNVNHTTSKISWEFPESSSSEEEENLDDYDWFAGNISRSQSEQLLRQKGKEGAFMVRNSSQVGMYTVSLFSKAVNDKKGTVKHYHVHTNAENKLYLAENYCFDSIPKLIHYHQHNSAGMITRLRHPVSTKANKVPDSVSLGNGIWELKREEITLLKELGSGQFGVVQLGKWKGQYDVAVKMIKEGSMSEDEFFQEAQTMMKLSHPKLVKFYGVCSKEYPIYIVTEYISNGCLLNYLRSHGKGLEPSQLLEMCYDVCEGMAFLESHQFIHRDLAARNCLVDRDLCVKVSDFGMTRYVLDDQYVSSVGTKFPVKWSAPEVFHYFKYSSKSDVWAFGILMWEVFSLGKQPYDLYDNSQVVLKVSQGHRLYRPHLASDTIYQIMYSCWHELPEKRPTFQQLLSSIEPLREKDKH
Put plainly: Displacement of competitive tracer from BMX (unknown origin) assessed as target occupancy at […] preincubated for 15 mins measured for 6 hrs relative to control. To be noted: dose 1.5 µM.

Data set [4] concerns the target T3, Tyrosine-protein kinase ITK/TSK (Homo sapiens) (UniProt Q08881).
T3 sequence (whole entry): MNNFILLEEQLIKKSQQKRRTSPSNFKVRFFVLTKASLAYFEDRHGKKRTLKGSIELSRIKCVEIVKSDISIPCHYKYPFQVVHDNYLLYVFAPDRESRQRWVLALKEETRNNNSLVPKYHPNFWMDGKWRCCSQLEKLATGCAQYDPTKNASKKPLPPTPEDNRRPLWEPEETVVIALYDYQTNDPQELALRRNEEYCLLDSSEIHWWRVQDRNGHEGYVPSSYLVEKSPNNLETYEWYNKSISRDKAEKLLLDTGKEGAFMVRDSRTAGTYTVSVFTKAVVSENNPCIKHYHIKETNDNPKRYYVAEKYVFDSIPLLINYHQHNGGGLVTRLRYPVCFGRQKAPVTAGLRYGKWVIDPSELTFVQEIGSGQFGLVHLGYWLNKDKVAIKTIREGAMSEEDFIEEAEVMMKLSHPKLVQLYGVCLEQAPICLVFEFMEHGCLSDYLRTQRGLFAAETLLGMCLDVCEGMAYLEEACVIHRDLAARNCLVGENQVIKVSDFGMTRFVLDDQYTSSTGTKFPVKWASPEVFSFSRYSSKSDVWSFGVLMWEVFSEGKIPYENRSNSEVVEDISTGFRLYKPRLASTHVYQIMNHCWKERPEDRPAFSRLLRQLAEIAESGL
Put plainly: Displacement of competitive tracer from ITK (unknown origin) assessed as target occupancy at […] preincubated for 15 mins measured for 6 hrs relative to control. Particulars: dose 1.5 µM.

In data set [5] the target is T4, Tyrosine-protein kinase Tec (Homo sapiens) (UniProt P42680).
T4 sequence (whole entry): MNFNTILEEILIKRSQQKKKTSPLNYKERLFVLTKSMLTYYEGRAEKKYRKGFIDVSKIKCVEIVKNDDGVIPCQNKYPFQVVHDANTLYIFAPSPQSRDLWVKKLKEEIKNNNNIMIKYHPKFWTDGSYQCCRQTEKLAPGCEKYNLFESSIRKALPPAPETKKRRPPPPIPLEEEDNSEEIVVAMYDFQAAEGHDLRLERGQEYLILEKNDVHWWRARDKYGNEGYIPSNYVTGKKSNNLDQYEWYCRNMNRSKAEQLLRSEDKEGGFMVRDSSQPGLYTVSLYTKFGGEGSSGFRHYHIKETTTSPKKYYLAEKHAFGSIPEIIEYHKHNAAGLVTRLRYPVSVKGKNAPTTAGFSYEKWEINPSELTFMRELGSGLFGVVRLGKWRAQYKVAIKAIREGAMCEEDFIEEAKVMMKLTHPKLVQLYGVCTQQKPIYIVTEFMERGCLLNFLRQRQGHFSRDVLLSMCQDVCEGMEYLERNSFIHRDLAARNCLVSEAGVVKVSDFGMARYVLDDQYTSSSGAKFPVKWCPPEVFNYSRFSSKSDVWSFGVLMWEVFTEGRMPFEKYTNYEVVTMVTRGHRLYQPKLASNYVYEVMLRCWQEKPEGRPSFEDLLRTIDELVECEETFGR
Kind of data set: Displacement of competitive tracer from TEC (unknown origin) assessed as target occupancy at […] preincubated for 15 mins measured for 6 hrs relative to control. To be noted: dose 1.5 µM.

A short description of data set [6]: Inhibition of EGF-stimulated AP-1 activation in human ME-180 cells by EGFR-based reporter assay. Format: cell-based. Background: Reporter assays use an easily measured gene product as a stand-in for the process of interest.
The next data set concerns Rattus norvegicus. Put plainly: Antiarthritic activity in collagen-induced arthritis Lewis rat model assessed as inhibition of ankle diameter administered orally daily for 10 days. Format: functional, organism-based. To be noted: dose 3-30 mg/kg/day, route po, time 10.0 day, DDE = dose-dependent effect.
Data set [7] can be described thus: Drug concentration in plasma of collagen-induced arthritis Lewis rat model 10 mg/kg/day, po measured after 6 hrs post-collection of plasma. Format: ADME, organism-based.
The nature of data set [8]: Drug concentration in plasma of collagen-induced arthritis Lewis rat model 30 mg/kg/day, po measured after 6 hrs post-collection of plasma. The data set is classed as ADME, organism-based.
Data set [9] in a line: Drug concentration in plasma of collagen-induced arthritis Lewis rat model 3 mg/kg/day, po measured after 12 hrs post-collection of plasma. Particulars: in vivo, BLD = below limit of detection. The data set is classed as ADME, organism-based.
A short description of data set [10]: Drug concentration in plasma of collagen-induced arthritis Lewis rat model 10 mg/kg/day, po measured after 12 hrs post-collection of plasma. The data set is classed as ADME, organism-based.
The nature of data set [11]: Drug concentration in plasma of collagen-induced arthritis Lewis rat model 30 mg/kg/day, po measured after 12 hrs post-collection of plasma. Format: ADME, organism-based.
Data set [12] deals with D(2) dopamine receptor (Homo sapiens) (UniProt P14416). Kind of data set: Displacement of [3H]methyl-spiperone from recombinant human dopamine receptor D2S at 10 uM incubated for 60 mins by radiometric scintillation assay relative to control.
Data set [13] in a line: Toxicity in female Beagle dog assessed as weight loss up to 400 mg/kg/day qd for 12 weeks. The data set is classed as organism-based, Canis lupus familiaris. To be noted: in vivo, 2016 h.
A short description of data set [14]: Toxicity in male Beagle dog assessed as NOAEL. More on the design: species or system Canis lupus familiaris. To be noted: in vivo.
The next data set concerns Canis lupus familiaris. Put plainly: Effect on canine pemphigus foliaceous dog model assessed as reduction in lesion at 8 to 21 mg/kg measured for 2 weeks. Particulars: dose lower 8.0 mg/kg, dose upper […]. The data set is classed as functional, organism-based.

T1 sequence (P51451 2-505 limits assumed): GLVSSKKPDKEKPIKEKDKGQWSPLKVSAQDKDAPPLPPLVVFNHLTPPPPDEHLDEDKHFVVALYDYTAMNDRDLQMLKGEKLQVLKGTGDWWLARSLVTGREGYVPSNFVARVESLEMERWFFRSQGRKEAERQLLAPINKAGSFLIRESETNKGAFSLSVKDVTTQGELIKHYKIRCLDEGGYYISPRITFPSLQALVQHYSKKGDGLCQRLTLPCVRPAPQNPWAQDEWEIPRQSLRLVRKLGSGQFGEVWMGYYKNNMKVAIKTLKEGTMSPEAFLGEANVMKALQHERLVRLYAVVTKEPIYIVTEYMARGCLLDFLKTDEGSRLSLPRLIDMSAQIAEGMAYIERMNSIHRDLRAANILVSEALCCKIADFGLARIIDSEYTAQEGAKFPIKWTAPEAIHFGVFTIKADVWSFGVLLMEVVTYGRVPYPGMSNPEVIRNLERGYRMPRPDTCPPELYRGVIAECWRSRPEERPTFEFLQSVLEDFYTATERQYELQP
Chain of D(2) dopamine receptor (Homo sapiens) (P14416 whole entry): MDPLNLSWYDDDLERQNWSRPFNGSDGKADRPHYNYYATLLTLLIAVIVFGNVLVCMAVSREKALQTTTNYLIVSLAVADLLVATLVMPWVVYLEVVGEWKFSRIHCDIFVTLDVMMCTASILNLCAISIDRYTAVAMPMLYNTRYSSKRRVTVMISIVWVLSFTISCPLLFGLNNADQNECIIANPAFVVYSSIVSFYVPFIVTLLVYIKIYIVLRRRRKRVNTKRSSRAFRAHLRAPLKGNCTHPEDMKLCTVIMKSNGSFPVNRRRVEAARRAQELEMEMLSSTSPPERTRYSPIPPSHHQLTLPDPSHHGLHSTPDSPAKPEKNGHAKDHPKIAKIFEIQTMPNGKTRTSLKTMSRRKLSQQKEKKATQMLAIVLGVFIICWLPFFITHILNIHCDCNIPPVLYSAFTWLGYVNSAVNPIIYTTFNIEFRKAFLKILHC

As usually defined, the IC50 is the concentration at which inhibition is half-maximal. In general, inhibition refers to how much of the control response was suppressed. The term NOAEL denotes the highest tested level that showed no adverse finding. Turning to `CC(C)(C)/C=C(\C#N)C(=O)N1CCC[C@@H](n2nc(-c3ccc(Oc4ccccc4)cc3F)c3c(N)ncnc32)C1` [ATUZABRUTINIB], the Activity in [1] was 44%; in [2] it was 1%; in [3], 82%; in data set [4], 28%; in [5], 80%; in the data set with Rattus norvegicus, “Dde”. For the same compound, in data set [13], the Activity entry is given as “Toxic”. This compound also yielded an IC50 in data set [6] above 5 µM. Moreover, the figures for the concentration at 6 h in [7] and in data set [8] were 40.2 ng/mL and 111 ng/mL, respectively. The Cp entry in [9] is listed as “Bld”. Also, the results for the concentration at 12 h in data set [10] and in data set [11] were 10 ng/mL and 51.8 ng/mL, respectively. Moreover, in data set [12], the inhibition was above 50%. Also, the NOAEL in [14] was determined as 400 mg/kg. For the same compound, in the data set on Canis lupus familiaris, the outcome was Active.
